Three molecules from article PMC7891710, “The narrow-spectrum anthelmintic oxantel is a potent agonist of a novel acetylcholine receptor subtype in whipworms” (PLoS Pathogens, 2021) can be followed below.

The target in assay [1] is T1, Tsu-ACR-16-like receptor (O-AChR) (Trichuris suis, UniProt A0A890W0I7).
T1 construct: full-length Tsu-ACR-16-like (GenBank MT386096), homomeric channel co-expressed with Asu-RIC-3 in Xenopus laevis oocytes
The assay can be described thus: two-electrode voltage clamp in Xenopus oocytes, agonist dose-response. It counts as cell-based.

The target in assay [2] is T1, Tsu-ACR-16-like receptor (O-AChR). The assay can be described thus: two-electrode voltage clamp in Xenopus oocytes, agonist dose-response (partial, Imax […]). It counts as cell-based.

T1 sequence (A0A890W0I7 entry or part of it): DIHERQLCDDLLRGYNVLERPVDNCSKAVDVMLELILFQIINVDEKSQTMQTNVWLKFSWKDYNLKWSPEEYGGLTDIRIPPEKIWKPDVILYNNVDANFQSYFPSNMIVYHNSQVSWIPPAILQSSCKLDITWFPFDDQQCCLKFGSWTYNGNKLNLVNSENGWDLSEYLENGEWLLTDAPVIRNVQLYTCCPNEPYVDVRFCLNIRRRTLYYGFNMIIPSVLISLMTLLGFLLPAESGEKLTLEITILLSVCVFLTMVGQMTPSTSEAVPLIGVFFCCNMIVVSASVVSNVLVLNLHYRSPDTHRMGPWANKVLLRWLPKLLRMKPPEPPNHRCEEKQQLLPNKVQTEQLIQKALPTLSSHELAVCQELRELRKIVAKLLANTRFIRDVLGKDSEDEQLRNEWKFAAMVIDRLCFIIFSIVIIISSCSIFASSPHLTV

With `CC(=O)OCC[N+](C)(C)C` [ACh, acetylcholine], the EC50 in assay [1] was 14.5 µM.
Still for that read-out and setting: as for `CN1CCCN=C1/C=C/c1cccc(O)c1` [oxa, oxantel], the figure is 9.49 µM.
With `CN1CCCN=C1/C=C/c1cccs1` [pyr, pyrantel], the EC50 in assay [2] worked out at 148 µM.
